Reference: patent publication US9051417B2, “Method for solubilizing carboxylic acid-containing compound in hydrocarbon solvent” (Dow Global Technologies LLC, priority 2013, dated 2015)

Experiment: Solubility measurement of acid chlorides containing one carboxylic acid moiety in hydrocarbon solvents with and without trialkylphosphate additives (saturated solutions, proton NMR)
Format: physicochemical
Settings: saturated solution
Source text: Many embodiments of the invention have been described and in some instances certain embodiments, selections, ranges, constituents, or other features have been characterized as being “preferred.” Characterizations of “preferred” features should in no way be interpreted as deeming such features as being required, essential or critical to the invention. For purposes of this description, the terms “acyl halide” and “acid halide” have the same meaning. While much of the description has focused upon acyl chlorides, non-chloride halides are also included. The term “solubility limit” refers to the point at which no additional amount of a constituent, (e.g. water, reaction product, hydrocarbon reactant) is miscible or dissolvable with the hydrocarbon solvent or solution, as measured at 20° C. and 101 kPa. Unless otherwise stated, all solubility related parameters are determined at 20° C. and 101 kPa.
Solubility measurement of acid chlorides containing one carboxylic acid moiety in hydrocarbon solvents with and without solubility enhancing additives:
Saturated solutions of sample acid chlorides containing carboxylic acid moieties were prepared in hydrocarbon solvents with and without the presence of trialkylphosphate additives by adding more sample than will dissolve in the solvent and decanting the saturated solvent from the undissolved precipitate. The saturated solutions were evaluated by proton NMR. Deuterated Isopar L is not commercially available, thus all spectra were acquired in the unlocked condition using regular Isopar L. Because of the very high proton concentration in running a non-deuterated solvent, 60° pulse and minimum receiver gain were used to avoid receiver overflow. A relaxation delay of 8 seconds was used for complete signal recovery between scans. The spectral width was set to 20 ppm and the center of the spectrum was set to 5 ppm. Depending on the concentrations of the species of interest, 64-256 scans were used for signal averaging.
The area of the Isopar L peaks between 0.75 and 2.0 ppm were measure and divided by 26 (which represents the average H's present in Isopar L, assuming a molecular formula of C12H26) and multiplied by 170.33, the formula weight of C12H26. The peak area of the aromatic acid chlorides containing carboxylates are between 8.9-9.2 ppm and are well resolved from the Isopar solvent. The integration of one of the assigned peaks (for example, the triplet of mono-hydrolyzed TMC at 9.0 ppm represents a single proton) was used to determine the relative weight of the sample in the Isopar L solvent. The integration is divided by the number of protons it represents and multiplied by the formula weight of the compound it represents (for example, the triplet of mono-hydrolyzed TMC at 9.0 ppm would be divided by 1 and multiplied by 247.03 g/mol). The wt % of mono-hydrolyzed TMC in the saturated solution is determined by dividing the value obtained for mono-hydrolyzed TMC by the value obtained for Isopar L.
In the presence of tributylphosphate (TBP), the Isopar L value must be corrected since a few protons of TBP cannot be resolved from the Isopar L peaks. This is done by integrating the —OCH2-protons of TBP which are well resolved at ˜4.05 ppm, dividing this value by 6 (for 6 protons). This area value is then multiplied by 21 (represents the three —CH2CH2CH3 that are unresolved from the Isopar L peak) and subtracted from the peak area of Isopar L.

[1] = solvent Isopar L, 20° C. and 101 kPa

O=C(O)c1cccc(C(=O)Cl)c1 [mhIPC]
Solubility (solvent Isopar L + 0.47 wt % TBP): 0.29 wt % | Solubility [1]: <0.02 wt %

O=C(O)c1cc(C(=O)Cl)cc(C(=O)Cl)c1 [mhTMC, mono-hydrolyzed trimesoyl chloride]
Solubility (solvent 80/20 Isopar L/Toluene + 0.25 wt % TBP): 0.29 wt % | Solubility (solvent 80/20 Isopar L/Toluene): 0.05 wt % | Solubility (solvent Isopar L + 1 wt % TEHP): 0.11 wt % | Solubility (solvent Isopar L + 1 wt % TEP): 0.2 wt % | Solubility [1]: 0.02 wt %
